From the OligoGym collection come the findings set out here.

Bases are written 5' to 3'; sugars and linkages follow in the same order, as letters with counts (s phosphorothioate, o phosphodiester; PS: all linkages phosphorothioate). The collection does not say whether C is 5-methylated. l = locked nucleic acid (LNA); d = 2'-deoxy (DNA)

Biological target in one data set: not listed separately
In words: rat primary cortical neurons, FLIPR, 25 uM ASO.
As to “CTAATATTATAACCATCAAC (sugars l3 d14 l3, PS)”, the calcium oscillation score was 82 % of control.

As to “CCAAATCTTATAATAACTAC (sugars ldlllddddddddddlldll, PS)”, the calcium oscillation score is 80.2 % of control.

Turning to “CACAATCTAACTATTAAC (sugars l3 d12 l3, PS)”, the calcium oscillation score is 76.5 % of control.

With “CAACCAACAATACTTTAAAC (sugars l4 d12 l4, PS)”, the calcium oscillation score was 85.6 % of control.

On to “AAATCTATAATAACCACCAC (sugars l3 d14 l3, PS)”, for which the calcium oscillation score was 80.2 % of control.

For the sequence “TACTCAAATATAACACCAAC (sugars l3 d14 l3, PS)”, the calcium oscillation score was 85.6 % of control.

For “CAAATCATCCATCTATAAAC (sugars l4 d12 l4, PS)”, the calcium oscillation score is 88.8 % of control.

On to “TCCACTAACCAATATAAC (sugars l3 d12 l3, PS)”, for which the calcium oscillation score was 76.5 % of control.

On to “CTAAATCCTTAATATCAAAC (sugars l4 d12 l4, PS)”, for which the calcium oscillation score is 79.3 % of control.

As to “TAACTAACTTAACTCAAC (sugars l3 d12 l3, PS)”, the calcium oscillation score is 74.7 % of control.

“CACAACTATTAAATACCAAC (sugars l3 d14 l3, PS)”: the calcium oscillation score is 83.8 % of control.

“CAAACTTATATCTTTCAAAC (sugars l4 d12 l4, PS)”: the calcium oscillation score is 78.3 % of control.

For “TACCATACAATAACTTTAAC (sugars l3 d14 l3, PS)”, the calcium oscillation score is 76.5 % of control.

For another data set, the target named is STC1. In words: rat primary cortical neurons, FLIPR, 25 uM ASO.
Take “AGCTATTTATATTCCAC (sugars l2 d11 l4, PS)”: the calcium oscillation score was 122 % of control.

In the case of CAACATTCAAGCCTTT (sugars l5 d7 l4, PS), the calcium oscillation score is 89.1 % of control.

Consider ATAGTTATTCCATTCC (sugars l4 d10 l2, PS), for which the calcium oscillation score is 105 % of control.

As to “ATTATTCTTCTGTTTCC (sugars l2 d11 l4, PS)”, the calcium oscillation score is 67.6 % of control.

For the sequence “CTAATTATATATTTCCAC (sugars l4 d10 l4, PS)”, the calcium oscillation score was 119 % of control.

AACATTCAAGCCTTTC (sugars l3 d9 l4, PS): the calcium oscillation score is 109 % of control.

“TATTATTCTTCTGTTTC (sugars l3 d10 l4, PS)”: the calcium oscillation score was 53.4 % of control.

Turning to “TAGTTATTCCATTCCCA (sugars l2 d13 l2, PS)”, the calcium oscillation score was 99.3 % of control.

Turning to “TATTTATATTCCACAGT (sugars l3 d10 l4, PS)”, the calcium oscillation score is 107 % of control.

In the case of ATCAATATTATTCTTCT (sugars l5 d8 l4, PS), the calcium oscillation score is 122 % of control.

For “TTACCCAAATACACACAT (sugars l4 d10 l4, PS)”, the calcium oscillation score was 137 % of control.

For “TTACAAGTCATTTCCCT (sugars l4 d11 l2, PS)”, the calcium oscillation score was 91.8 % of control.

Regarding TAGTTATTCCATTCCC (sugars l2 d12 l2, PS), the calcium oscillation score is 92.3 % of control.

In the case of “TCAATATTATTCTTCTG (sugars l2 d11 l4, PS)”, the calcium oscillation score was 35.4 % of control.

For “CTATTTATATTCCACAG (sugars l4 d11 l2, PS)”, the calcium oscillation score was 69.8 % of control.

Regarding “TTACCCAAATACACACATA (sugars l3 d12 l4, PS)”, the calcium oscillation score is 119 % of control.

As for TTACCCAAATACACACA (sugars l4 d9 l4, PS), the calcium oscillation score is 143 % of control.

For the sequence ACCTGTAACTACTTCC (sugars l3 d11 l2, PS), the calcium oscillation score was 100 % of control.

As for ACATTCAAGCCTTTCC (sugars l4 d10 l2, PS), the calcium oscillation score is 81.6 % of control.

The target in a further data set is Tau. In words: rat primary cortical neurons, FLIPR, 25 uM ASO.
CCTCTTCCACTACAAG (sugars l2 d12 l2, PS): the calcium oscillation score was 57.8 % of control.

On to AGAGGCACAAGTCCTT (sugars l3 d10 l3, PS), for which the calcium oscillation score is 78.1 % of control.

Consider “TTCTAATTTAGTCACCA (sugars l3 d10 l4, PS)”, for which the calcium oscillation score was 65.9 % of control.

AGAATATTACACCATC (sugars l4 d8 l4, PS): the calcium oscillation score was 102 % of control.

Take “CTTTATTTCCAAATTCACTT (sugars l2 d1 l1 d13 l3, PS)”: the calcium oscillation score is 132 % of control.

Regarding “CTTAGTCATCTTCCCTC (sugars l2 d13 l2, PS)”, the calcium oscillation score is 92.4 % of control.

On to “CACCACAGTCTTTTAAT (sugars l4 d10 l3, PS)”, for which the calcium oscillation score was 73.7 % of control.

With “ATTGTCCAGGGACCCAATCT (sugars l3 d14 l3, PS)”, the calcium oscillation score is 50.9 % of control.

On to “TCCCCACCCAAACTCCA (sugars l2 d13 l2, PS)”, for which the calcium oscillation score is 80.8 % of control.

In the case of CATCGCTTCCAGTCCC (sugars l3 d10 l3, PS), the calcium oscillation score was 39.1 % of control.

Take “GCTCCATATTCCTGCCCAAG (sugars l3 d14 l3, PS)”: the calcium oscillation score was 34.2 % of control.

As for “CAGCCTACTTTATTCCC (sugars l2 d13 l2, PS)”, the calcium oscillation score was 79.2 % of control.

GGCGACTTGTACAC (sugars l3 d8 l3, PS): the calcium oscillation score was 117 % of control.

On to CTTTGGCGTTCTCGCG (sugars l3 d10 l3, PS), for which the calcium oscillation score was 93.5 % of control.

In the case of “TCCTCCATTGTAACTACT (sugars l2 d14 l2, PS)”, the calcium oscillation score is 59.4 % of control.

Turning to CTGGCCACCTCCTGGT (sugars l3 d10 l3, PS), the calcium oscillation score is 16.1 % of control.

Consider AGGCGCGAGCAGCG (sugars l3 d8 l3, PS), for which the calcium oscillation score was 100 % of control.

On to “ATGATGGATGTTGCCTAATG (sugars l3 d14 l3, PS)”, for which the calcium oscillation score is 0 % of control.

As to “CTTTATTTCCAAATTCAC (sugars l5 d9 l1 d1 l2, PS)”, the calcium oscillation score is 119 % of control.

Regarding “CTCAACATTACCCTTAAATA (sugars l4 d14 l2, PS)”, the calcium oscillation score is 57.6 % of control.

Regarding “CCACTTTACTTTGCAAC (sugars l4 d11 l2, PS)”, the calcium oscillation score was 55.8 % of control.

On to TCCTAATCCTGTGCTT (sugars l3 d10 l3, PS), for which the calcium oscillation score was 23 % of control.

Consider “ACCATTAACTGCCTATT (sugars l4 d11 l2, PS)”, for which the calcium oscillation score was 50.5 % of control.

On to “ATTTATTCCATTGCTCT (sugars l2 d11 l4, PS)”, for which the calcium oscillation score is 42.4 % of control.

On to CCCAGAATTCTAACTA (sugars l4 d10 l2, PS), for which the calcium oscillation score is 63.5 % of control.

Regarding “ATCATTTTTTATTCATAACT (sugars l4 d12 l4, PS)”, the calcium oscillation score is 53.4 % of control.

Turning to “ACTGGTTTGTAGACTATTTG (sugars l3 d14 l3, PS)”, the calcium oscillation score is 0 % of control.

“CTTACAACCAACACTGA (sugars l3 d10 l4, PS)”: the calcium oscillation score was 49.7 % of control.

Take “TTATTTCCAAATTCACTTTT (sugars l5 d10 l5, PS)”: the calcium oscillation score was ≥ 200 % of control.

“TTATTTCCAAATTCACTTTT (sugars l4 d11 l2 d1 l2, PS)”: the calcium oscillation score is 104 % of control.

As for AAGCATTTCAAGATAC (sugars l3 d10 l3, PS), the calcium oscillation score was 66.7 % of control.

Take AGCAATAGCAAACAGG (sugars l3 d10 l3, PS): the calcium oscillation score is 48.8 % of control.

As to ATTAATTACACCCCTG (sugars l3 d9 l4, PS), the calcium oscillation score is 5.47 % of control.

As to TGAATAACATTAACCC (sugars l4 d8 l4, PS), the calcium oscillation score was 54 % of control.

Consider “AAAGCAGGTTAAGTGATTAA (sugars l3 d14 l3, PS)”, for which the calcium oscillation score was 2.59 % of control.

Turning to “TCTTCACATCCCAACTA (sugars l2 d12 l3, PS)”, the calcium oscillation score was 126 % of control.

“CAGATATTCATTCCCTC (sugars l2 d12 l3, PS)”: the calcium oscillation score is 64.4 % of control.

For “GCCTCTAGCCACATGGACCC (sugars l3 d14 l3, PS)”, the calcium oscillation score is 4.03 % of control.
